# Test results from US8178713B2, “Sulfur-containing phospholipid derivatives” (Pronovo Biopharma Norge AS, priority 2002, dated 2012).
# Marks after values point to notes of the source that are not given here.
# What was measured:
# [1] = tested on: 3-Hydroxy-3-methylglutharyl-CoA synthase; assay: 3-Hydroxy-3-methylglutharyl-CoA synthase activity in rat liver homogenate after feeding; format: in vivo; details: fed 1 mmole TTA/day/kg, 6 days; for 3-Hydroxy-3-methylglutharyl-CoA synthase Enzyme activity: rat liver homogenate, control 28.23 ± 4.43
# Description: (§1) Male wistar rats (4-5 rats in each treatment group) were fed TTA, TTA-PC or TTA-TAG at equimolar doses of TTA (1 mmole/day/kg body weight) for 6 days. Control rats received only 0.5% CMC. The rats were sacrificed and evaluated for lipid lowering effects, increased fatty acid oxidation, and activity of key mitochondrian enzymes, carnitine palmitoyltransferase-II, 3-hydroxy-3-methylglutharyl-CoA synthase and fatty acyl-CoA oxidases.
# Male Wistar Charles River rats weighing 200-250 g at the start of the experiment were housed in metal wire cages in a temperature (22±1° C.) and light-controlled (light from 7.00 a.m. to 7.00 p.m.) room. They were given free access to chow and water. They were fed a Standard Laboratory Rat Chow R-34-EWOS-ALAB (EWOS Sweden) grower rat maintenance chow. Two rats were housed per cage. The animals were acclimatized for at least 5 days before the start of the experiments. Weight gain and food intake were recorded daily. […]
# (§2) Freshly isolated livers from individual male wistar rats, were homogenised in ice-cold sucrose buffer (0.25 M sucrose, 10 mM HEPES (pH 7.4) and 2 mM EDTA). […] Acid soluble products were measured in post-nuclear fractions, using [1-^14C]-palmitoyl-CoA (Radiochemical Centre, Amersham, England) as substrates as described in literature.^15 Carnitine palmitoyltransferase-II activities were measured in the mitochondrial fraction essentially as described by Bremer^16 and 3-hydroxy-3-methylglutharyl-CoA synthase was measured according to Clinkenbeard et al.^17 in the post-nuclear fraction. Fatty acyl-CoA oxidase was measured in the post-nuclear fraction by the coupled assay described by Small et al.^18 The production of hydrogen peroxide was measured by monitoring the increase in dichlorofluorescein absorbance in the presence of palmitoyl-CoA.
# [2] = tested on: mitochondrial carnitine palmitoyltransferase-II; assay: Mitochondrial carnitine palmitoyltransferase-II activity after feeding; format: in vivo, rat; details: mitochondrial fraction of liver; fed 1 mmole TTA/day/kg, 6 days; control 8.32 ± 1.42
# Description: as §1
# (§3) Male Wistar Charles River rats weighing 200-250 g at the start of the experiment were housed in metal wire cages in a temperature (22±1° C.) and light-controlled (light from 7.00 a.m. to 7.00 p.m.) room. They were given free access to chow and water. […] Weight gain and food intake were recorded daily. […]
# as §2, with “Fatty acyl-CoA oxidase was measured in the post-nuclear fraction by the coupled assay described by Small et al.^18 The production of hydrogen peroxide was measured by monitoring the increase in dichlorofluorescein absorbance in the presence of palmitoyl-CoA.” left out
# male Wistar rats [3] = assay: Effect of esterified and non-esterified TTA on plasma lipids, fed for 6 days; format: in vivo, rat; details: for plasma Triacylglycerol / plasma Cholesterol: fed at equimolar doses of TTA, 1 mmole/day/kg body weight; for plasma Triacylglycerol: control (0.5% CMC) 1.20 ± 0.35; for plasma Cholesterol: control (0.5% CMC) 1.84 ± 0.25
# Description: as §1
# (§4) Male Wistar Charles River rats weighing 200-250 g at the start of the experiment were housed in metal wire cages in a temperature (22±1° C.) and light-controlled (light from 7.00 a.m. to 7.00 p.m.) room. They were given free access to chow and water. They were fed a Standard Laboratory Rat Chow R-34-EWOS-ALAB (EWOS Sweden) grower rat maintenance chow. Two rats were housed per cage. The animals were acclimatized for at least 5 days before the start of the experiments. Weight gain and food intake were recorded daily. TTA and esterified TFAs (1,2-Di(1,2-Di(tetradecylthioacetoyl)-sn -glycero-3-phosphocholine (TTA-PC) and Glyceryl 1,2,3-Tri(tetradecylthioacetate) (triacylglycerol) (TTA-TAG)) were suspended in 0.5% carboxymethylcellulose (CMC) and administered by gastric intubation in a final volume of 0.8-1.2 ml once a day for 6 days.
# At the end of the experiments the animals were anaesthetized with Fluorane (0.4 ml/100 g body weight) and cardiac puncture was performed to obtain blood samples in EDTA containing vacutainers. Plasma was prepared and triacylglycerol and cholesterol were measured using the Monotest enzymatic kit (Boehringer Mannheim, Germany).
# [4] = tested on: Palmitoyl-CoA oxidation in rat liver homogenate; assay: Palmitoyl-CoA oxidation in rat liver homogenate after feeding; format: in vivo; details: fed 1 mmole TTA/day/kg, 6 days, control 0.75 ± 0.06
# Description: as §1, §3
# as §2, with “Fatty acyl-CoA oxidase was measured in the post-nuclear fraction by the coupled assay described by Small et al.^18 The production of hydrogen peroxide was measured by monitoring the increase in dichlorofluorescein absorbance in the presence of palmitoyl-CoA.” left out
# male Wistar rats [5] = assay: Effect of esterified and non-esterified TTA on hepatic triacylglycerol content; format: in vivo, rat; details: 6 days; for hepatic Triacylglycerol content: fed 1 mmole TTA/day/kg body weight, control 3.71 ± 0.50
# Description: as §1, §4
# Fatty acyl-CoA oxidase = Fatty acyl-CoA oxidase activity in rat liver homogenate after feeding; format: in vivo; details: fed 1 mmole TTA/day/kg, 6 days, control 16.50 ± 4.74
# Description: as §1, §3
# as §2, with “Fatty acyl-CoA oxidase was measured in the post-nuclear fraction by the coupled assay described by Small et al.^18 The production of hydrogen peroxide was measured by monitoring the increase in dichlorofluorescein absorbance in the presence of palmitoyl-CoA.” left out
Structure (SMILES),increased 3-hydroxy-3-methylglutharyl-CoA synthase activity relative to that after feeding non-esterified TTA [1],3-Hydroxy-3-methylglutharyl-CoA synthase Enzyme activity [1],carnitine palmitoyltransferase-II Enzyme activity [2],decrease in plasma triacylglycerol and cholesterol levels compared to the control (largest decrease) (male Wistar rats [3]; fed 1 mmole TTA/day/kg) [%],plasma Triacylglycerol (male Wistar rats [3]),plasma Cholesterol (male Wistar rats [3]),Palm-CoA oxidised [4],hepatic Triacylglycerol content (male Wistar rats [5]),decrease in the hepatic triacylglycerol level compared to the control (largest decrease) (male Wistar rats [5]; fed 1 mmole TTA/day/kg) [%],Fatty acyl-CoA oxidase Enzyme activity (Fatty acyl-CoA oxidase)
"CCCCCCCCCCCCCCSCC(=O)OC[C@H](COP(=O)([O-])OCC[N+](C)(C)C)OC(=O)CSCCCCCCCCCCCCCC [TTA-PC, 1,2-ditetradecylthioacetoyl-sn-glycero-3-phosphocholine]",more than three times as large,"97.77 ± 20.51^a,b nmol/mg/min","31.96 ± 2.63^a,b nmol/mg/min",60,"0.47 ± 0.21^a,b mmol/L",0.74 ± 0.20^a mmol/L,1.39 ± 0.15^a nmol/mg/min,2.53 ± 0.43^a μmol/mg protein,30,"129.48 ± 15.08^a,b nmol/mg/min"
"CCCCCCCCCCCCCCSCC(=O)OCC(COC(=O)CSCCCCCCCCCCCCCC)OC(=O)CSCCCCCCCCCCCCCC [TTA-TAG, 1,2,3-Tritetradecylthioacetoyl-sn-glycerol]",,40.35 ± 6.16^a nmol/mg/min,17.88 ± 4.37^a nmol/mg/min,,0.56 ± 0.21^a mmol/L,1.18 ± 0.12^a mmol/L,1.37 ± 0.08^a nmol/mg/min,2.88 ± 0.50^a μmol/mg protein,,49.87 ± 22.51^a nmol/mg/min
